Measured values as given in ChEMBL document CHEMBL3879915, “Methods of inhibiting PRMT5” (2014).

Experiments:
[1] = biological target: PRMT5/MEP50 complex (Homo sapiens, UniProt O14744); assay: Inhibition of recombinant human fetal brain FLAG-tagged PRMT5/full length human testis 6His-tagged MEP50 expressed in baculovirus infected insect Sf9 cells using human histone H4 (1 to 15 residues) as substrate preincubated for 30 mins followed by [3H]-SAM addition
[2] = Antiproliferative activity against human Z138 cells assessed as inhibition of cell viability after 5 days by Cell-Titer Glo assay; assay type: functional, cell-based; conditions: Z-138, 120 h
[3] = biological target: Protein arginine N-methyltransferase 5 (Homo sapiens, UniProt O14744); assay: Inhibition of PRMT5 in human Z138 cells assessed as decrease in di-methyl arginine levels after 96 hrs by Western blot method; assay type: cell-based
Protein arginine N-methyltransferase 5, sequence (O14744 whole entry): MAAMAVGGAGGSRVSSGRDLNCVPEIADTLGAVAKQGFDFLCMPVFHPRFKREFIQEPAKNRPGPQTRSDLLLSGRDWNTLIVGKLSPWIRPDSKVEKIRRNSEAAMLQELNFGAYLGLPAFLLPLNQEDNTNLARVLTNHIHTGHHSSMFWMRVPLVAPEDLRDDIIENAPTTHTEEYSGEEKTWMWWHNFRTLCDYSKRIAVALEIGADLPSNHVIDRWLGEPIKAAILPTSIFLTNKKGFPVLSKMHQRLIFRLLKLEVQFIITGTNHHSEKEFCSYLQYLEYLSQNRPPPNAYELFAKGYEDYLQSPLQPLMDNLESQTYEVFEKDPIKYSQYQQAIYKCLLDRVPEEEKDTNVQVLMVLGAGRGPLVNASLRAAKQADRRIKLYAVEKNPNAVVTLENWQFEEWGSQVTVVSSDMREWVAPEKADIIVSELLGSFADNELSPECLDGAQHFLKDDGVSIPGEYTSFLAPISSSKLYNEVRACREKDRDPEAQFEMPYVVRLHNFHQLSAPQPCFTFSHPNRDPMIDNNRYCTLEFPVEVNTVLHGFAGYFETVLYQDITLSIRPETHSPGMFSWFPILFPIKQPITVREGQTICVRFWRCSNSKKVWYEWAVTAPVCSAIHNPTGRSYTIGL

PRMT5/MEP50 complex, sequence (O14744 whole entry, the tested form may be a part): as the sequence (O14744 whole entry) above
PRMT5/MEP50 complex, sequence (Q9BQA1 whole entry, further chain, the tested form may be a part): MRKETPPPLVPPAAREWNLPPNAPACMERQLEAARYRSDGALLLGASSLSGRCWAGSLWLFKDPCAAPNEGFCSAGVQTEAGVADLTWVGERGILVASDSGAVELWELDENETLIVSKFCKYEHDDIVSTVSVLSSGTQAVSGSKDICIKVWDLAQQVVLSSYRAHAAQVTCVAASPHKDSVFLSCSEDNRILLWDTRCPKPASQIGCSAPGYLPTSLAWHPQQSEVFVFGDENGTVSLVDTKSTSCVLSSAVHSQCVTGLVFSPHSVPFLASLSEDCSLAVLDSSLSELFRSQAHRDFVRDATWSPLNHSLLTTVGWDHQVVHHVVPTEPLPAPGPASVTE

Row | SMILES | IC50 [1] [nM] | EC50 [2] [nM] | EC50 [3] [nM]
1 | CNC(=O)Cn1cnc2ccc(-c3cccc(OCC(O)CN4CCc5ccccc5C4)c3)cc21 (centres undefined) | 101 to 1000 | 1000 to 10000 | 1000 to 10000
2 | Cn1cnc2ccc(-c3cccc(OC[C@@H](O)CN4CCc5ccccc5C4)c3)cc21 | 101 to 1000 | 1000 to 10000 | 1000 to 10000
3 | O=C(Cn1cnc2ccc(-c3cccc(OCC(O)CN4CCc5ccccc5C4)c3)cc21)N1CCCC1 (centres undefined) | 101 to 1000 | 10000 to 40000 | 101 to 1000
4 | Cn1cc2ccc(-c3ccnc(NCC(O)CN4CCc5ccccc5C4)c3)cc2n1 (centres undefined) | < 100 | 1000 to 10000 | 101 to 1000
5 | O=C(Cn1ccc2cnc(-c3ccnc(NCC(O)CN4CCc5ccccc5C4)c3)nc21)N1CCOCC1 (centres undefined) | < 100 | 101 to 1000 | < 100
6 | OC(COc1cccc(-c2ncc3ccn(C4CCNCC4)c3n2)c1)CN1CCc2ccccc2C1 (centres undefined) | < 100 | 1000 to 10000 | 101 to 1000
7 | Cn1cnc2ccc(-c3cccc(OC[C@H](O)CN4CCc5ccccc5C4)c3)cc21 | < 100 | 1000 to 10000 | 101 to 1000
8 | CN1CCC(n2cnc3ccc(-c4cccc(OCC(O)CN5CCc6ccccc6C5)c4)cc32)CC1 (centres undefined) | < 100 | 1000 to 10000 | 101 to 1000
9 | COc1ccc(-c2cccc(OCC(O)CN3CCc4ccccc4C3)c2)cc1Cl (centres undefined) | 101 to 1000 | > 20000 | 10000 to 40000
10 | O=C(Cn1ccc2cnc(-c3ccnc(NCC(O)CN4CCc5ccccc5C4)c3)nc21)N1CCCC1 (centres undefined) | < 100 | 1000 to 10000 | < 100
11 | Cc1cn(C)c2cc(-c3cccc(OCC(O)CN4CCc5ccccc5C4)c3)ccc12 (centres undefined) | 101 to 1000 | > 20000 | 1000 to 10000
12 | OC(CNc1cc(-c2ncc3ccn(C4CCNCC4)c3n2)ccn1)CN1CCc2ccccc2C1 (centres undefined) | < 100 | 101 to 1000 | < 100
13 | OC(CNc1cc(-c2ccc3ncn(C4CCOCC4)c3c2)ccn1)CN1CCc2ccccc2C1 (centres undefined) | < 100 | 1000 to 10000 | 101 to 1000
14 | CNC(=O)c1cccc(-c2cccc(OCC(O)CN3CCc4ccccc4C3)c2)c1 (centres undefined) | 101 to 1000 | > 20000 | 1000 to 10000
15 | CN1CCC(n2cnc3ccc(-c4ccnc(NCC(O)CN5CCc6ccccc6C5)c4)cc32)CC1 (centres undefined) | < 100 | 1000 to 10000 | 101 to 1000
16 | Cn1ccc2cnc(-c3ccnc(NCC(O)CN4CCc5ccccc5C4)c3)nc21 (centres undefined) | < 100 | 1000 to 10000 | < 100
17 | O=C(c1cccc(-c2cccc(OCC(O)CN3CCc4ccccc4C3)c2)c1)N1CCCC1 (centres undefined) | 101 to 1000 | 10000 to 40000 | 1000 to 10000

Row | SMILES | IC50 [1] [nM] | EC50 [2] [nM] | EC50 [3] [nM]
18 | OC(CNc1cc(-c2ncc3ccn(C4CNC4)c3n2)ccn1)CN1CCc2ccccc2C1 (centres undefined) | < 100 | 1000 to 10000 | 101 to 1000
19 | OC(COc1cccc(-c2ccc3ncn(C4CCNC4)c3c2)c1)CN1CCc2ccccc2C1 (centres undefined) | < 100 | 1000 to 10000 | 101 to 1000
20 | CC(=O)N1CCC(n2cnc3ccc(-c4ccnc(NCC(O)CN5CCc6ccccc6C5)c4)cc32)CC1 (centres undefined) | 101 to 1000 | 1000 to 10000 | 101 to 1000
21 | OC(CNc1cc(-c2ccc3ncn(C4CCNCC4)c3c2)ccn1)CN1CCc2ccccc2C1 (centres undefined) | < 100 | 1000 to 10000 | 101 to 1000
22 | NC(=O)c1cccc(-c2cccc(OCC(O)CN3CCc4ccccc4C3)c2)c1 (centres undefined) | 101 to 1000 | > 20000 | 1000 to 10000
23 | Cn1cc2ccc(-c3cc(NCC(O)CN4CCc5ccccc5C4)ncn3)cc2n1 (centres undefined) | 101 to 1000 | > 20000 | 101 to 1000
24 | CC(=O)N1CCC(n2ccc3cnc(-c4cccc(OCC(O)CN5CCc6ccccc6C5)c4)nc32)CC1 (centres undefined) | 101 to 1000 | 1000 to 10000 | 101 to 1000
25 | OC(COc1cccc(-c2ccc3ncoc3c2)c1)CN1CCc2ccccc2C1 (centres undefined) | 101 to 1000 | 10000 to 40000 | 1000 to 10000
26 | N#Cc1cccc(-c2cccc(OCC(O)CN3CCc4ccccc4C3)c2)c1 (centres undefined) | 101 to 1000 | > 20000 | 1000 to 10000
27 | OC(COc1cccc(-c2cccc3[nH]cnc23)c1)CN1CCc2ccccc2C1 (centres undefined) | < 100 | 10000 to 40000 | 101 to 1000
28 | OC(COc1cccc(-c2cc(OC(F)(F)F)ccc2Cl)c1)CN1CCc2ccccc2C1 (centres undefined) | 101 to 1000 | > 20000 | 10000 to 40000
29 | Cn1ncc2ccc(-c3ccnc(NCC(O)CN4CCc5ccccc5C4)c3)cc21 (centres undefined) | < 100 | 1000 to 10000 | 101 to 1000
30 | Cn1cnc2ccc(-c3cc(NCC(O)CN4CCc5ccccc5C4)ccn3)cc21 (centres undefined) | 101 to 1000 | 10000 to 40000 | 1000 to 10000
31 | Cn1cnc2ccc(-c3cncc(NCC(O)CN4CCc5ccccc5C4)c3)cc21 (centres undefined) | < 100 | 1000 to 10000 | < 100
32 | Cn1cnc2ccc(-c3cccc(OCC(O)CN4CCc5ccccc5C4)c3)nc21 (centres undefined) | < 100 | 101 to 1000 | 101 to 1000
33 | CN1CC(n2cnc3ccc(-c4cccc(OCC(O)CN5CCc6ccccc6C5)c4)cc32)C1 (centres undefined) | < 100 | 1000 to 10000 | 101 to 1000
